Measured values reported in patent publication US4737519A, “Substituted naphthalenes, indoles, benzofurans, and benzothiophenes as lipoxygenase inhibitors” (The Upjohn Company, priority 1986, dated 1988).
pIC50: −log10 of the molar value. Values belong to the compound of their own block, whether it stands above or below them.

Tests used:
human airways = conditions: in vitro; cited from earlier work
canine tracheas = conditions: in vivo; cited from earlier work
leukotriene synthesis = assay: inhibition of leukotriene synthesis (standard laboratory test); type: cell-based
Description: Certain of the amino acyl compounds of this invention (when R3 is --C(O)--(CR17 R18)m --(CH2)n --NR14 R15, --C(O)--AA or --C(O)--PhX--NH2) were evaluated in a standard laboratory test to measure the inhibition of leukotriene synthesis. Four of the amino-type compounds of this invention were preferred in this test. Specifically, in this test system, L-Valine, 2,3-diethyl-4-methoxynaphth-1-yl ester, hydrochloride; L-Valine, 2-n-butyl-4-methoxynaphth-1-yl ester; L-Valine, 2-n-butyl-4-methoxynaphth-1-yl ester, hydrochloride; and L-Alanine, 2-n-butyl-4-methoxynaphth-1-yl ester were preferred.

mucous secretion = assay: canine tracheal mucous secretion (hillock count); type: in vivo, mongrel dogs
Description: Mongrel dogs (weight 18-35 kg) were anesthetized with a mixture of chloralose (100 mg/kg) and urethane (500 mg/kg) via intravenous injection. The animals were secured to a surgery table, ventral side up, and the neck and inner right hind limb were shaved. A ventral midline incision was made in the neck using a Bovie CSVII electrosurgical unit, starting from the papillae (interramal) to the clavicle thus exposing the trachea. An endotracheal tube was secured into the lower trachea. The animals were then connected via the endotracheal tube to a Harvard respirator (Model 607A) that delivered room air at a constant tidal volume and frequency. Two polyethylene catheters were connected to the endotracheal tube, and one was connected to a medical gas analyzer (Beckman, Model LB-2) that continuously measured the carbon dioxide (CO2) content of the expired air for determination of end tidal CO2. The other was connected to a pressure transducer (Statham, Model PMI 131TC+2.5-350) for the measurement of airway press ure.
A second incision made in the inner right hind limb to expose the femoral artery and vein was made for the catheterization of these large vessels. A polyethylene catheter was tied into the artery and connected to a pressure transducer (Statham, Model P231D) for the measurement of blood pressure. This catheter also allowed for samples of arterial blood to be collected for measurements of blood gas tension using a blood gas analyser (Corning, Model 175). Another polyethylene catheter was tied into the femoral vein which was used for injecting additional anesthetic and paralyzing drugs. Gallamine triethiodide (20-40 mg) was used to paralyze the respiratory muscles and a single injection of sodium bicarbonate 7.5% (0.5 mg/kg) in conjunction with a continuous i.v. drip of 5% dextrose in 0.9% saline helped to maintain fluid balance. All physiological measurements were recorded and monitored on a polygraph (Grass instruments, Model 7D). Once the femoral cutdown was completed, surgery on the neck region resumed. The carotid artery was exposed and the "knuckle" (a portion of the carotid which bisects to supply blood flow to the trachea and neck muscles) was located. A small polyethylene catheter was then inserted into the muscular branch of the cranial thyroid artery (CTA). This allowed for close arterial injection of experimental agents. The strap muscles were removed and the mucosal surface of the trachea exposed by cutting along the anterior midline of the upper two-thirds of the extrathoracic trachea and pulling the cut edges widely apart. The exposed mucosa was checked for proper canulation by blanching and appropriate adjustments of the canula into the CTA were made until blanching was achieved.
Isometric tension measurements of the trachealis muscle were recorded by suturing a rigid, plastic bar to the (15) cartilaginous rings of the cut edges of the trachea, and connecting one side to a fixed restraint and the contralateral side to a force displacement transducer (Grass, Model FT 03C). An initial tension of 25-30 g/cm of trachea was applied to the muscle, and it was allowed to stabilize for 45 min. An initial zero tension point was determined before agonists were injected into the CTA, and the zero was readjusted after agonist injections.
To visualize secretions coming from the submucosal gland duct openings of the trachea, powdered tantalum, an inert metal (2-5 microns in size) was sprayed on the trachea until it formed a uniform layer over the mucosal surface. The tantalum itself did nothing to normal secretion, but prevented the normal ciliary dispersion of secretions from the gland duct openings; these secretions, therefore, caused elevations ("hillocks") in the tantalum layer. The number of hillocks formed in a 1.2 cm^2 field, 1-2 cm from the larynx, were counted and their images were recorded with a video camera (Hitachi CCTV, Model HV-17TU) mounted on a dissecting microscrope (Zeiss Ompi-1) with a beam splitter. […]

lipoxygenase = lipoxygenase inhibition, oxygen uptake of washed human platelets with arachidonic acid; type: cell-based; conditions: for inhibition of 5-HETE production: 10 μm
Description: The compounds of the present invention were also tested for lipoxygenase inhibition. Arachidonic acid is added to washed human platelets and the oxygen uptake is measured using oxygraph cells. A decrease of oxygen uptake versus the control cell indicates inhibition of lipoxygenase. For a full description of the procedure see, Wallach, et al., Biochim. Biophys. Acta. 231: 445 (1976).

SRS-A = SRS-A synthesis inhibition in rat mononuclear cells incubated with cysteine and challenged with calcium ionophore; type: cell-based; conditions: 10 micrograms/ml
Description: This test is conducted in rat mononuclear cells incubated in the presence of cysteine and challenged with a calcium ionophore (which induces SRS-A formation). Among the nonamino compounds of this invention, in this test system, 1-acetoxy-2-n-butyl-4-methoxynaphthalene (Example 3) and 1-acetoxy-2,3-diethyl-4-methoxynaphthalene (Example 4) are preferred.

deep vein thrombosis = assay: deep vein thrombosis: jugular vein stasis in cats, scanning electron microscopy; type: in vivo, domestic short hair cats
Description: Nine adult domestic short hair cats weighing 4.5-5 kg were anesthetized with sodium pentabarbital (25-30 mg/kg i.v.). The neck area was prepared for a sterile cut down procedure and the jugular veins were exposed. After exposure of the veins each animal was injected with epsilon amino caproic acid (eaca) to inhibit plasminogen activation (2.5 grams i.v. in Tyrode's solution). […] Six of the cats were also treated with 2,3-diethyl-4-methoxy-1-naphthalenol, acetate. Three of the cats were given 1 mg/kg i.v. and 3 of the cats were treated with 5 mg/kg i.v. prior to venous occlusion. The jugular veins were carefully dissected free of surrounding connective tissue and the vein was ligated at the thoracic inlet with 3-0 dexon. The skin incision was closed and the animals were maintained in surgical anesthesia for 2 hours. At the end of the 2 hour waiting period, the jugular veins were exposed again. A 25 gauge butterfly needle was positioned into the lumen and blood was flushed out of the vein with heparinized Tyrode's solution (1U heparin/ml). The veins were tied off and removed under physiologic pressure. The vessels were immediately immersed in a 2.5% glutaraldehyde solution prepared in Tyrode's solution for fixation. The veins were fixed overnight at 5 degrees centigrade, postfixed in 1% osmium tetroxide overnight, dehydrated in ethanol and substituted by amyl acetate. All veins were critical point dried from carbon dioxide using a Denton DCP-1 critical point drying apparatus. The veins were mounted on stubas, gold coated on a Denton DV-502 modified vacuum evaporator and examined on a Cambridge Stereoscan 150 scanning electron microscope.
Two hours of jugular vein stasis following the trauma of dissection caused massive white cell adhesion to and migration under the venous endothelium of non-treated cats and produced sloughing of the endothelium and exposure of the basement membrane. This damage was sufficient to initiate thrombosis. Many of the exposed areas of basement membrane had adherent platelets. The platelets were adherent as monolayers or as aggregates. In some areas fibrin was found deposited on the endothelium or exposed basement membrane. Leukocytes were occasionally associated with the fibrin.

tracheal mucus velocity = conditions: given prior to antigen challenge, patients with a history of bronchial asthma; cited from earlier work
[1] = 1.0 mg/kg oral, predose time 3.5 hr, n=2, ↑ indicates stimulation
[2] = 5 mg/kg oral, predose time 3.5 hr, n=2
[3] = 1.0%, inhalation, n=6, ***p<0.0001

Compound: CCCCC/C=C\C\C=C/C=C/C=C/[C@@H](SC[C@H](N)C(=O)NCC(=O)O)[C@@H](O)CCCC(=O)O [LTD4, leukotriene D4]
release of mucus from human airways (human airways): increase the release of mucus
release of mucus from canine tracheas (canine tracheas): increase the release of mucus

Compound: CCCCc1cc(OC)c2ccccc2c1OC(=O)[C@H](C)N [L-Alanine, 2-n-butyl-4-methoxynaphth-1-yl ester]
inhibition at 1 µg/mL (leukotriene synthesis; 1 microgram/ml): 98%
inhibition of synthesis of leukotriene (leukotriene synthesis; 10 micrograms/ml): completely inhibited

Compound: COc1ccc2c(c1)c(CC(=O)O)c(C)n2C(=O)c1ccc(Cl)cc1 [indomethacin, reference compound]
block of normal baseline secretion (mucous secretion; indomethacin 5 mg/kg pretreatment, at least 30 minutes): about 20%
block of the effect of arachidonate alone (mucous secretion; indomethacin 5 mg/kg pretreatment, arachidonate 1.0 mg in the CTA): nicely blocked the effect of arachidonate alone

Compound: CCCCc1cc(OC)c2ccccc2c1OC(=O)[C@@H](N)C(C)C [L-Valine, 2-n-butyl-4-methoxynaphth-1-yl ester]
inhibition at 1 µg/mL (leukotriene synthesis; 1 microgram/ml): 97%
inhibition of synthesis of leukotriene (leukotriene synthesis; 10 micrograms/ml): completely inhibited

pIC50 (lipoxygenase; lipoxygenase system, washed human platelets): ~7.00
Compound: CCCCc1cc(OC)c2ccccc2c1OC(C)=O [Example 3, 2-Butyl-4-methoxy-1-naphthalenol, acetate]
inhibition of 5-HETE production (lipoxygenase): completely inhibiting
inhibition at 10 µg/mL (SRS-A): 100%
% Inhibition of Agonist Response, Indo/AA (mucous secretion; 0.001%, inhalation, n=4, **p<0.005): 100%
% Inhibition of Agonist Response, Hypoxia (mucous secretion; 0.001%, inhalation, n=4, *p<0.05): 87%
% Inhibition of Agonist Response, Baseline: stimulation (.uparw.) (mucous secretion; 0.001%, inhalation, n=4, ↑ indicates stimulation): 24%
% Inhibition of Agonist Response, Indo/AA (mucous secretion; 1.0 mg/kg oral, predose time 3.5 hr, n=2): 50%
% Inhibition of Agonist Response, Baseline: stimulation (.uparw.) (mucous secretion; [1]): 6%
% Inhibition of Agonist Response, Hypoxia: stimulation (.uparw.) (mucous secretion; [1]): 11%
% Inhibition of Agonist Response, Indo/AA (mucous secretion; 1.0 mg/kg oral, predose time 5.0 hr, n=2, *p<0.05): 62%
% Inhibition of Agonist Response, Hypoxia (mucous secretion; [2]): 49%
% Inhibition of Agonist Response, Indo/AA (mucous secretion; [2]): 69%
% Inhibition of Agonist Response, Baseline: stimulation (.uparw.) (mucous secretion; 5 mg/kg oral, predose time 3.5 hr, n=2, ↑ indicates stimulation): 30%
% Inhibition of Agonist Response, Indo/AA (mucous secretion; 5 mg/kg oral, predose time 4.5 hr, n=2): 95%
% Inhibition of Agonist Response, Baseline (mucous secretion; 0.01%, inhalation, n=5): 19%
% Inhibition of Agonist Response, Hypoxia (mucous secretion; 0.01%, inhalation, n=5): 91%
% Inhibition of Agonist Response, Indo/AA (mucous secretion; 0.01%, inhalation, n=5, **p<0.005): 100%
% Inhibition of Agonist Response, Hypoxia (mucous secretion; 10 mg/kg oral, predose time 3 hr, n=2): 94%
% Inhibition of Agonist Response, Indo/AA (mucous secretion; 10 mg/kg oral, predose time 3 hr, n=2, *p<0.05): 100%
% Inhibition of Agonist Response, Baseline: stimulation (.uparw.) (mucous secretion; 10 mg/kg oral, predose time 3 hr, n=2, ↑ indicates stimulation): 5%
% Inhibition of Agonist Response, Indo/AA (mucous secretion; 10 mg/kg oral, predose time 4 hr, n=2, *p<0.05): 100%
% Inhibition of Agonist Response, Indo/AA (mucous secretion; 10 mg/kg oral, predose time 5 hr, n=2, *p<0.05): 100%
% Inhibition of Agonist Response, Baseline (mucous secretion; 0.1%, inhalation, n=4): 23%
% Inhibition of Agonist Response, Indo/AA (mucous secretion; 0.1%, inhalation, n=4, **p<0.005): 100%
% Inhibition of Agonist Response, Hypoxia (mucous secretion; 0.1%, inhalation, n=4, *p<0.05): 96%
% Inhibition of Agonist Response, Baseline (mucous secretion; 1.0%, inhalation, n=6): 6%
% Inhibition of Agonist Response, Hypoxia (mucous secretion; [3]): 100%
% Inhibition of Agonist Response, Indo/AA (mucous secretion; [3]): 100%
effect on baseline secretion and on enhanced mucus secretion due to hypoxia or arachidonic acid (mucous secretion; mongrel dog model): effective in blocking baseline secretion in a dose dependent fashion as well as enhanced mucus secretion due to hypoxia or arachidonic acid administration

Compound: CCCCc1cc(OC)c2ccccc2c1OC(=O)[C@@H](N)C(C)C.Cl [L-Valine, 2-n-butyl-4-methoxynaphth-1-yl ester, hydrochloride]
inhibition of synthesis of leukotriene (leukotriene synthesis; 1 microgram/ml): 93%
inhibition of synthesis of leukotriene (leukotriene synthesis; 10 micrograms/ml): completely inhibited

Compound: CCc1c(CC)c(OC(C)=O)c2ccccc2c1OC [Example 4, 2,3-Diethyl-4-methoxy-1-naphthalenol, acetate]
inhibition of 5-HETE production (lipoxygenase): completely inhibiting
inhibition at 10 µg/mL (SRS-A): 95%
areas with detached endothelial cells or exposed basement membrane (deep vein thrombosis; 1 mg/kg i.v.): Few areas with detached endothelial cells or exposed basement membrane
leukocyte adhesion or migration (deep vein thrombosis; 1 mg/kg i.v.): did not reduce leukocyte adhesion or migration
leukocyte release of hydrolytic enzymes and production of superoxides (deep vein thrombosis; 1 mg/kg i.v.): apparently inhibited
areas of adherent leukocytes (deep vein thrombosis; 5 mg/kg i.v.): only patchy areas of adherent leukocytes were observed
fibrin deposition (deep vein thrombosis; 5 mg/kg i.v.): Only occasional small areas of fibrin deposition
inhibitory effect on leukocyte mediated damage (deep vein thrombosis; 5 mg/kg i.v., compared with 1 mg/kg): even greater inhibitory effect on leukocyte mediated damage
numbers of adhering and migrating leukocytes (deep vein thrombosis; 5 mg/kg i.v., compared with control or 1 mg/kg group): appeared to be less
vascular surface with intact endothelial cell cover and few adherent leukocytes (deep vein thrombosis; 5 mg/kg i.v., with the exception of one vein): approximately half or more of the vascular surface
effect on the vascular changes (deep vein thrombosis; 1 and 5 mg/kg i.v. prior to venous occlusion): dose dependent effect on the vascular changes

Compound: CCCc1c(OCC(O)COc2ccc3c(=O)cc(C(=O)O)oc3c2CCC)ccc(C(C)=O)c1O (stereo not drawn) [FPL 55712]
reversing the tracheal mucus velocity (tracheal mucus velocity): effective in reversing the tracheal mucus velocity

Compound: monohydroxyeicosatetraenoic acid
release of mucus from human airways (human airways): release mucus from human airway

Compound: CCc1c(CC)c(OC(=O)[C@@H](N)C(C)C)c2ccccc2c1OC.Cl [L-Valine, 2,3-diethyl-4-methoxynaphth-1-yl ester, hydrochloride]
inhibition at 1 µg/mL (leukotriene synthesis; 1 microgram/ml): 100%
inhibition of synthesis of leukotriene (leukotriene synthesis; 10 micrograms/ml): completely inhibited
